Measurements reported in patent US20230277452A1, “COMPOSITIONS, DEVICES AND METHODS FOR TREATING NASAL, OTIC AND OTHER TISSUE INFECTION AND/OR INFLAMMATION” (priority 2020, published 2023).

Assays:
[1] = humans with psoriasis, topical betamethasone dipropionate 0.05% spray or lotion BID for 15 days; majority of subjects not measurable; cited from earlier work
[2] = cited from earlier work
in vivo = conditions: male, Merino, sheep, in vivo
Description: The control article was 0.9% saline.
Blood was collected (via a jugular vein cannula inserted during surgery) during the 10-day post-dose phase for pharmacokinetics, hematology, clinical chemistry, glucose, and morning cortisol analysis.
Because of the variability in the volume of the sinus in sheep, the total volume varied from 5 to 15 mL. Doses calculated by body weight and body surface area (BSA) are also shown.

Pseudomonas aeruginosa = conditions: cited from earlier work
[3] = system: Streptococci, Staphylococci, Gardnerella vaginalis, and Corynebacteria; conditions: cited from earlier work
[4] = Forced degradation of fluticasone propionate, percent recovery by HPLC; assay type: physicochemical
Description: A similar analysis was performed of the 0.005% fluticasone propionate cream (lot #2021-07-01).

[5] = Recovery of force-degraded fluticasone propionate spiked into placebo and of active cream, HPLC; assay type: physicochemical; conditions: Spiked into placebo
[6] = Betamethasone plasma concentration, Mean
[7] = Individual betamethasone plasma concentrations

## CCC(=O)OCC(=O)[C@@]1(OC(=O)CC)[C@@H](C)C[C@H]2[C@@H]3CCC4=CC(=O)C=C[C@]4(C)[C@@]3(F)[C@@H](O)C[C@@]21C [Betamethasone dipropionate, 9-Fluoro-11β,17,21-trihydroxy-16β-methylpregna-1,4-diene-3,20-dione 17,21-dipropionate]
[1]
  plasma concentration: < 5 pg/mL
[2]
  Biological Half Life: 36-54 Hours

## C[C@H]1C[C@H]2[C@@H]3CCC4=CC(=O)C=C[C@]4(C)[C@@]3(F)[C@@H](O)C[C@]2(C)[C@@]1(O)C(=O)CO [Betamethasone, betamethasone]
In vivo
  AUC(0-inf): 35.2 ± 8.3 ng·h/mL
  AUC(0-t): 33.5 ± 8.9 ng·h/mL
  Cmax: 0.98 ± 0.397 ng/mL
  Tmax: 24 h
  plasma levels detected through: 3 days post-dose
  time of maximum plasma levels: about 24 hr post-dose
In vivo; [6]
  concentration at 0 h: 0 ng/mL
  concentration at 0.5 h: 0.152 ng/mL
  concentration at 1 h: 0.307 ng/mL
  concentration at 2 h: 0.518 ng/mL
  concentration at 6 h: 0.74 ng/mL
  concentration at 24 h: 0.964 ng/mL
  concentration at 48 h: 0.223 ng/mL
  concentration at 72 h: 0.071 ng/mL
In vivo; [7]
  concentration at 0 h: 0 ng/mL
  concentration at 48 h: 0.229 ng/mL

## C[C@H]1C[C@@H]2[C@H]([C@@H](O)C[C@@]3(C)[C@H]2CC[C@]3(O)C(=O)CO)[C@@]2(C)C=CC(=O)C=C12 [Methyl-prednisolone, methylprednisolone]
[2]
  Biological Half Life: 18-36 Hours

## Clc1ccccc1C(c1ccccc1)(c1ccccc1)n1ccnc1 [clotrimazole]
Pseudomonas aeruginosa
  effect on Pseudomonas aeruginosa: reduction
[3]
  antibacterial activity: antibacterial activity

## CCC(=O)O[C@]1(C(=O)SCF)[C@H](C)C[C@H]2[C@@H]3C[C@H](F)C4=CC(=O)C=C[C@]4(C)[C@@]3(F)[C@@H](O)C[C@@]21C [fluticasone propionate]
[4]; Acid (0.1N HCl, 1 hour)
  Actual Amount: 12.1791 µg/mL
[4]; Base (0.1N NaOH, 1 hour)
  Actual Amount: 11.7484 µg/mL
[4]; Control
  Actual Amount: 12.5695 µg/mL
[4]; Heat (60° C., 3 days)
  Actual Amount: 12.0739 µg/mL
[4]; Light (white light, 3 days)
  Actual Amount: 11.6609 µg/mL
[4]; Peroxide (3% H2O2, 1 hour)
  Actual Amount: 16.4961 µg/mL
[5]; Acid
  Peak Area FP: 2.377
  Peak Area RRT = 0.32: 0.033
  Peak Area RRT = 0.33: no peak
  Peak Area RRT = 1.17: 0.221
  Total MFM-Related Area: 2.631
[5]; Base
  Peak Area FP: 2.395
  Peak Area RRT = 0.32: 0.032
  Peak Area RRT = 0.33: no peak
  Peak Area RRT = 1.17: 0.166
  Total MFM-Related Area: 2.593
[5]; Control
  Peak Area FP: 2.607
  Peak Area RRT = 0.32: no peak
  Peak Area RRT = 0.33: 0.012
  Peak Area RRT = 1.17: 0.046
  Total MFM-Related Area: 2.665
[5]; Heat
  Peak Area FP: 2.924
  Peak Area RRT = 0.32: no peak
  Peak Area RRT = 0.33: no peak
  Peak Area RRT = 1.17: 0.183
  Total MFM-Related Area: 3.107
[5]; Light
  Peak Area FP: 2.599
  Peak Area RRT = 0.33: no peak
  Peak Area RRT = 1.17: 0.159
  Total MFM-Related Area: 2.791
[5]; Peroxide
  Peak Area FP: 2.424
  Peak Area RRT = 0.32: no peak
  Peak Area RRT = 0.33: no peak
  Peak Area RRT = 1.17: no peak
  Total MFM-Related Area: 2.424

## C[C@]12CCC(=O)C=C1CC[C@@H]1[C@@H]2[C@@H](O)C[C@@]2(C)[C@H]1CC[C@]2(O)C(=O)CO [hydrocortisone]
[2]
  Biological Half Life: 8-12 Hours

## C[C@]12C=CC(=O)C=C1CC[C@@H]1[C@@H]2[C@@H](O)C[C@@]2(C)[C@H]1CC[C@]2(O)C(=O)CO [prednisolone]
[2]
  Biological Half Life: 18-36 Hours

## C[C@]12C=CC(=O)C=C1CC[C@H]1[C@@H]3C[C@@H](O)[C@](O)(C(=O)CO)[C@@]3(C)C[C@H](O)[C@@]12F [triamcinolone]
[2]
  Biological Half Life: 18-36 Hours
